We go through 8 molecules from ChEMBL document CHEMBL1777691, “Structure based design of novel inhibitors for histidinol dehydrogenase from Geotrichum candidum” (Bioorg Med Chem Lett, 2010).

What is called IC50 is the concentration at which inhibition is half-maximal. Read a low IC50 as higher potency.

This assay is described as follows: Inhibition of Geotrichum candidum Histidinol dehydrogenase.
Molecule `CCOC(=O)NC(Cc1cn(C)cn1)C(=O)OC` (stereo not drawn) registered an IC50 of 29.3 µM.

`O=C(O)CCc1c[nH]cn1` displayed an IC50 of 3.17 µM.

Take `COC(=O)C1Cc2c(Cl)ncn2C(=O)N1` (stereo not drawn): the IC50 amounted to 122 µM.

Molecule `O=C(O)C1Cc2cncn2C(=O)N1` (stereo not drawn) yielded an IC50 of 3.56 µM.

In turn, `O=C(O)C1Cc2c(I)nc(I)n2C(=O)N1` (stereo not drawn) displayed an IC50 of 58.7 µM.

On to `COC(=O)NC(Cc1cncn1C)C(=O)OC` (stereo not drawn), for which the IC50 came out at 10.6 µM.

In turn, `COC(=O)CCc1c[nH]cn1` yielded an IC50 of 5.2 µM.

In the case of `O=C1NCCc2cncn21`, the IC50 was found to be 24.2 µM.
